Measured values: patent EP4707277A1, “NOVEL HETEROCYCLIC AMINE DERIVATIVES AND PHARMACEUTICAL COMPOSITION COMPRISING SAME” (Daewoong Pharmaceutical Co., Ltd., priority 2023, dated 2024)
Like-named read-outs stand apart in the source and are kept apart here.

Key:
ITK = target: T1, ITK (Homo sapiens, UniProt Q08881); assay: Inhibitory activity against ITK, ADP-Glo Kinase system (Promega); format: biochemical
T1 construct: purchased Signalchem I13-11G-10
T1 sequence (Q08881 1-620): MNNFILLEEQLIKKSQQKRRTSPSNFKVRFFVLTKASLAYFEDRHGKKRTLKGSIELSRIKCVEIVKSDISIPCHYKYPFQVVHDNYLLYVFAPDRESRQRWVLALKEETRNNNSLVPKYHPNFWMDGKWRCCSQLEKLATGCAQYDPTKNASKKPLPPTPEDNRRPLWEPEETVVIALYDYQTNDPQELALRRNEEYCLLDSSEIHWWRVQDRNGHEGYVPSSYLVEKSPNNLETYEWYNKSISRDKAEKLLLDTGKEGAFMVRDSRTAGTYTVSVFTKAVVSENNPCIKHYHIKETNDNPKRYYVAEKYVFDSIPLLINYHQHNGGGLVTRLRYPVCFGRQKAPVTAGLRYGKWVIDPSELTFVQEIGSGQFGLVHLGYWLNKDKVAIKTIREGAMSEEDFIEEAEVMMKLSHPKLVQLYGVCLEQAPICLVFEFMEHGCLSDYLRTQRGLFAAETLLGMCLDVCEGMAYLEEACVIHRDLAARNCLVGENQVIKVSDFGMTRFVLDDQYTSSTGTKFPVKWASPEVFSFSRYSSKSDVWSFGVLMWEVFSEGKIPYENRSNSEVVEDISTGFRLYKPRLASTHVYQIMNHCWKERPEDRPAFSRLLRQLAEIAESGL
Outline: (§1)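 IC50 values were fitted from kinase reactions run for 1 h at 30°C with either 1 mM ATP or ATP at Km (10 µM for BTK, 25 µM for ITK). Reactions used 0.2 µg/µl poly(Glu4,Tyr1), recombinant human enzyme (BTK 10 ng, ITK 4 ng per reaction) in Tris pH 7.5 Mn/Mg buffer with 1% DMSO. ADP formed was read by ADP-Glo luminescence.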

BTK = target: T2, BTK (Homo sapiens, UniProt Q06187); assay: Inhibitory activity against BTK, ADP-Glo Kinase system (Promega); format: biochemical
T2 construct: purchased Signalchem B10-10H
T2 sequence (Q06187 whole entry): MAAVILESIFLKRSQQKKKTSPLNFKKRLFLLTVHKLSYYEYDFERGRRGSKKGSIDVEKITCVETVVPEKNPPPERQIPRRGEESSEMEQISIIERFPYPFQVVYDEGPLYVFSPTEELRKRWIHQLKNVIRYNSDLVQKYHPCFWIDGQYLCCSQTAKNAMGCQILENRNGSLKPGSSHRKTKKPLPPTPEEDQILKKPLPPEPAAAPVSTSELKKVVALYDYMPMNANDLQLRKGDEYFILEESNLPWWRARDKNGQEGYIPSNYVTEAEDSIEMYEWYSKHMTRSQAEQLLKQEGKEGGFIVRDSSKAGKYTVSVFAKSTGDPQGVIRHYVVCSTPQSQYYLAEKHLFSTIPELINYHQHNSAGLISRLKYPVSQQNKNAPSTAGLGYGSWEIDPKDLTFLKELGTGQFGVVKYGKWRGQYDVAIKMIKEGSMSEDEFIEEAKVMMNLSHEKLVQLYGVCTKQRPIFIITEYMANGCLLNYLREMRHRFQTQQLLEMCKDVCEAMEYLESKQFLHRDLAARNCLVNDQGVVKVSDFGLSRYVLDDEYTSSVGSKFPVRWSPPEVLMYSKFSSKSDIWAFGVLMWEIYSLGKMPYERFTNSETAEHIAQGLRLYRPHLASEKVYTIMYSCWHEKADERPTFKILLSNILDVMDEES
Outline: as §1

[1] = 1mM ATP, read-out: ITK IC50(nM) 1mM ATP
[2] = 1mM ATP, read-out: BTK IC50(nM) 1mM ATP
[3] = Km ATP (ITK: 25uM), read-out: ITK IC50(nM) Km ATP
[4] = Km ATP (BTK: 10 uM), read-out: BTK IC50(nM) Km ATP

SMILES | IC50 (ITK; [1]) [nM] | IC50 (BTK; [2]) [nM] | IC50 (ITK; [3]) [nM] | IC50 (BTK; [4]) [nM]
C=CC(=O)N1C[C@@H](Oc2nc(Nc3ncc(C)s3)cc3c2ccn3CC(C)C)C[C@H]1C [Example 96, 1-((2R,4S)-4-((1-isobutyl-6-((5-methylthiazol-2-yl)amino)-1H-pyrrolo[3,2-c]pyridin-4-yl)oxy)-2-methylpyrrolidin-1-yl)prop-2-en-1-one] | ≤ 20 | ≤ 20 |  | 
C=CC(=O)N1CCC[C@H](Oc2nc(Nc3ncc(C)s3)cc3c2ccn3C2CCCC2)C1 [Example 151, (S)-1-(3-((1-cyclopentyl-6-((5-methylthiazol-2-yl)amino)-1H-pyrrolo[3,2-c]pyridin-4-yl)oxy)piperidin-1-yl)prop-2-en-1-one] | 20 to 100 | ≤ 20 |  | 
C=CC(=O)N1CC=C(c2nc(Nc3ncc(C)s3)cc3c2ccn3CC2CC2)CC1 [Example 4, 1-(4-(1-(cyclopropylmethyl)-6-((5-methylthiazol-2-yl)amino)-1H-pyrrolo[3,2-c]pyridin-4-yl)-3,6-dihydropyridin-1(2H)-yl)prop-2-en-1-one] | 20 to 100 | 20 to 100 | ≤ 20 | ≤ 20
C#CC(=O)N1CC[C@H](Oc2nc(Nc3ncc(C)s3)cc3c2ccn3CC(C)C)C1 [Example 225, (S)-1-(3-((1-isobutyl-6-((5-methylthiazol-2-yl)amino)-1H-pyrrolo[3,2-c]pyridin-4-yl)oxy)pyrrolidin-1-yl)prop-2-yn-1-one] | ≤ 20 | ≤ 20 |  | 
C=CC(=O)N1C[C@H](F)[C@H](Oc2nc(Nc3ncc(C#N)s3)cc3c2ccn3CC(C)C)C1 [Example 181, 2-((4-(((3R,4S)-1-acryloyl-4-fluoropyrrolidin-3-yl)oxy)-1-isobutyl-1H-pyrrolo[3,2-c]pyridin-6-yl)amino)thiazole-5-carbonitrile] | ≤ 20 | ≤ 20 |  | 
C=CC(=O)N1CCC[C@H](Oc2nc(Nc3ncc(C)s3)cc3c2ccn3C(C)C)C1 [Example 84, (S)-1-(3-((1-isopropyl-6-((5-methylthiazol-2-yl)amino)-1H-pyrrolo[3,2-c]pyridin-4-yl)oxy)piperidin-1-yl)prop-2-en-1-one] | 20 to 100 | ≤ 20 |  | 
C=CC(=O)N1CC[C@H](Oc2nc(Nc3ncc(C)s3)cc3c2ccn3CCOC)C1 [Example 127, (S)-1-(3-((1-(2-methoxyethyl)-6-((5-methylthiazol-2-yl)amino)-1H-pyrrolo[3,2-c]pyridin-4-yl)oxy)pyrrolidin-1-yl)prop-2-en-1-one] | ≤ 20 | ≤ 20 |  | 
C=CC(=O)N1C[C@H](F)[C@H](Oc2nc(Nc3ncc(C)s3)cc3c2ccn3C2CCCC2)C1 [Example 109, 1-((3R,4S)-3-((1-cyclopentyl-6-((5-methylthiazol-2-yl)amino)-1H-pyrrolo[3,2-c]pyridin-4-yl)oxy)-4-fluoropyrrolidin-1-yl)prop-2-en-1-one] | ≤ 20 | ≤ 20 |  | 
C=CC(=O)N1C[C@@H](Oc2nc(Nc3ncc(C)s3)cc3c2ccn3C2CCCC2)C[C@H]1C [Example 100, 1-((2R,4S)-4-((1-cyclopentyl-6-((5-methylthiazol-2-yl)amino)-1H-pyrrolo[3,2-c]pyridin-4-yl)oxy)-2-methylpyrrolidin-1-yl)prop-2-en-1-one] | ≤ 20 | ≤ 20 |  | 
C=CC(=O)Nc1cc(-c2nc(Nc3ncc(C)s3)cc3c2ccn3CC(C)C)c(F)cc1F [Example 67, N-(2,4-difluoro-5-(1-isobutyl-6-((5-methylthiazol-2-yl)amino)-1H-pyrrolo[3,2-c]pyridin-4-yl)phenyl)acrylamide] | 20 to 100 | ≤ 20 | ≤ 20 | ≤ 20
C=CC(=O)N1C2C=C(c3nc(Nc4ncc(C)s4)cc4c3ccn4C(C)C)CC1CC2 (stereo not drawn) [Example 29, 1-(3-(1-isopropyl-6-((5-methylthiazol-2-yl)amino)-1H-pyrrolo[3,2-c]pyridin-4-yl)-8-azabicyclo[3.2.1]oct-2-en-8-yl)prop-2-en-1-one] |  |  | ≤ 20 | ≤ 20
C=CC(=O)N1C[C@@H](F)[C@@H](Oc2nc(Nc3ncc(C)s3)cc3c2ccn3CC(C)C)C1 [Example 135, 1-((3R,4S)-3-fluoro-4-((1-isobutyl-6-((5-methylthiazol-2-yl)amino)-1H-pyrrolo[3,2-c]pyridin-4-yl)oxy)pyrrolidin-1-yl)prop-2-en-1-one] | > 500 | > 500 |  | 
C=CC(=O)N1CCC[C@H]1COc1nc(Nc2ncc(C)s2)cc2c1ccn2CC(C)CC (stereo partly drawn) [Example 221, 1-((2S)-2-(((1-(2-methylbutyl)-6-((5-methylthiazol-2-yl)amino)-1H-pyrrolo[3,2-c]pyridin-4-yl)oxy)methyl)pyrrolidin-1-yl)prop-2-en-1-one] | 20 to 100 | ≤ 20 |  | 
C=CC(=O)Nc1cc(-c2nc(Nc3ncc(C)s3)cc3c2ccn3C)ccc1C [Example 55, N-(2-methyl-5-(1-methyl-6-((5-methylthiazol-2-yl)amino)-1H-pyrrolo[3,2-c]pyridin-4-yl)phenyl)acrylamide] |  |  | ≤ 20 | ≤ 20
C=CC(=O)N1CC[C@H](Oc2nc(Nc3cc(F)ccc3C)cc3c2ccn3C)C1 [Example 138, (S)-1-(3-((6-((5-fluoro-2-methylphenyl)amino)-1-methyl-1H-pyrrolo[3,2-c]pyridin-4-yl)oxy)pyrrolidin-1-yl)prop-2-en-1-one] | > 500 | > 500 |  | 
C=CC(=O)N1C[C@@H](F)[C@H](Oc2nc(Nc3ncc(C)s3)cc3c2ccn3CC2(C(F)(F)F)CC2)C1 [Example 120, 1-((3R,4R)-3-fluoro-4-((6-((5-methylthiazol-2-yl)amino)-1-((1-(trifluoromethyl)cyclopropyl)methyl)-1H-pyrrolo[3,2-c]pyridin-4-yl)oxy)pyrrolidin-1-yl)prop-2-en-1-one] |  |  | ≤ 20 | ≤ 20
C=CC(=O)N1CC=C(c2nc(Nc3cc(C)ncn3)cc3c2ccn3C(C)C)CC1 [Example 44, 1-(4-(1-isopropyl-6-((6-methylpyrimidin-4-yl)amino)-1H-pyrrolo[3,2-c]pyridin-4-yl)-3,6-dihydropyridin-1(2H)-yl)prop-2-en-1-one] | 100 to 500 | 20 to 100 |  | 
C=CC(=O)N1CC[C@H](Oc2nc(Nc3ncc(C)s3)cc3c2ccn3CC(C)CC)C1 (stereo partly drawn) [Example 123, 1-((3S)-3-((1-(2-methylbutyl)-6-((5-methylthiazol-2-yl)amino)-1H-pyrrolo[3,2-c]pyridin-4-yl)oxy)pyrrolidin-1-yl)prop-2-en-1-one] |  |  | ≤ 20 | ≤ 20
C=CC(=O)N1CC=C(c2nc(Nc3ncc(C)s3)cc3c2ccn3CC(C)C)CC1 [Example 6, 1-(4-(1-isobutyl-6-((5-methylthiazol-2-yl)amino)-1H-pyrrolo[3,2-c]pyridin-4-yl)-3,6-dihydropyridin-1(2H)-yl)prop-2-en-1-one] | 100 to 500 | 20 to 100 | ≤ 20 | ≤ 20
C=CC(=O)Nc1cc(-c2nc(Nc3ncc(C)s3)cc3c2ccn3CCC(C)(C)C)c(F)cc1F [Example 69, N-(5-(1-(3,3-dimethylbutyl)-6-((5-methylthiazol-2-yl)amino)-1H-pyrrolo[3,2-c]pyridin-4-yl)-2,4-difluorophenyl)acrylamide] | 20 to 100 | 100 to 500 |  | 
C=CC(=O)N1C2C=C(c3nc(Nc4ncc(C)s4)cc4c3ccn4C(C)C)CC1CCC2 (stereo not drawn) [Example 37, 1-(3-(1-isopropyl-6-((5-methylthiazol-2-yl)amino)-1H-pyrrolo[3,2-c]pyridin-4-yl)-9-azabicyclo[3.3.1]non-2-en-9-yl)prop-2-en-1-one] | ≤ 20 | ≤ 20 |  | 
C=CC(=O)Nc1cc(-c2nc(Nc3ncc(C)s3)cc3c2ccn3CC(F)(F)F)c(F)cc1F [Example 77, N-(2,4-difluoro-5-(6-((5-methylthiazol-2-yl)amino)-1-(2,2,2-trifluoroethyl)-1H-pyrrolo[3,2-c]pyridin-4-yl)phenyl)acrylamide] | 20 to 100 | ≤ 20 |  | 
C=CC(=O)N1CC[C@H](COc2nc(Nc3ncc(C)s3)cc3c2ccn3CC(C)C)C1 [Example 216, (S)-1-(3-(((1-isobutyl-6-((5-methylthiazol-2-yl)amino)-1H-pyrrolo[3,2-c]pyridin-4-yl)oxy)methyl)pyrrolidin-1-yl)prop-2-en-1-one] | 100 to 500 | 20 to 100 |  | 
C=CC(=O)N1CCC[C@H](Oc2nc(Nc3ncc(C)s3)cc3c2ccn3CC2CC2)C1 [Example 149, (S)-1-(3-((1-(cyclopropylmethyl)-6-((5-methylthiazol-2-yl)amino)-1H-pyrrolo[3,2-c]pyridin-4-yl)oxy)piperidin-1-yl)prop-2-en-1-one] | ≤ 20 | ≤ 20 |  | 
